# Results taken from patent US20080253996A1, “Use of Sdf-1 for the Treatment and/or Prevention of Neurological Diseases” (LABORATORIES SERONO SA, priority 2005, published 2008).
# Legend:
# STZ-rats = assay: Hot plate 52° C. test in STZ diabetic rats; format: in vivo, rat; conditions: D40 post-STZ, SDF-1α 10, 30, 100 μg/kg, IL-6 10 μg/kg s.c.
# Method: Eight week-old male Sprague Dawley rats (Janvier, Le Genest Saint Isle, France) were randomly distributed in 6 experimental groups (n=10) as shown below.
# Diabetes was induced by intravenous injection of a buffered solution of streptozotocin (Sigma, L'Isle d'Abeau Chesnes, France) at a dose of 55 mg/kg. STZ was prepared in 0.1 mol/l citrate buffer pH 4.5. The control group received an equivalent volume of citrate buffer. The day of STZ injection was considered as D0.
# Treatment with SDF-1α with IL-6 or their matched vehicle was performed on daily basis from D11 to D40.
# The animal was placed into a glass cylinder on a hot plate adjusted to 52° C. The latency of the first reaction was recorded (licking, brisk movement of the paws, little leaps or a jump to escape the heat) with a cutoff time of 30 s.
# [1] = test system: primary mixed cortical cultures stimulated with LPS; assay: Cytokine release (TNF-α, IL-6) from LPS stimulated primary mixed cortical cultures; format: cell-based, mouse
# Method: Culturing of primary cells was performed as described (Lubetzki et al., 1993) using brain tissue from embryos isolated from NMRI mice at 16 days post-coitum. Cerebral hemispheres were dissected from embryo brains, dissociated via trypsin digestion and the single cell suspension was seeded at 5×10^4 cells in 50 μl myelination medium per well onto BioCoat® poly-L-lysine coated 96-well plates (356516, Becton Dickinson). The myelination medium consisted of Bottenstein-Sato medium (Bottenstein and Sato, 1979; Sadir et al., 2001), supplemented with 1% FCS, 1% penicillin-streptomycin solution (Seromed) and recombinant platelet-derived growth factor AA (PDGF-AA, R&D Systems) at 10 ng/mL.
# For testing the effects of SDF-1α and SDF-1α variant (as defined in SEQ ID NO: 4) on LPS stimulated cultures, cells were allowed to grow for two weeks. At day 14 cells were pre-incubated with increasing concentrations (0.001, 0.1 and 10 ng/ml) of the corresponding proteins into 25 μl of medium for three hours at 37° C. and 10% CO2. LPS was then supplemented to the cells at the concentration of 5 ng/ml into 25 μl of medium to obtain a final volume of 100 μl and incubated for 48 hours. Supernatants were collected at day 16 and the levels of TNF-α and IL-6 (the major cytokines released by activated microglia) were measured via specific ELISAs purchased from R&D systems (DuoSet mouse TNF-α ELISA DY410, mouse IL-6 ELISA DY406).
# Global analysis of the data was performed using one-way ANOVA. Dunnett's test was used further, and data were compared to the “untreated cells”. The level of significance was set at a: p<0.001; b or **: p<0.01; c or *: p<0.05; d: p<0.1. The results were expressed as mean ±standard error of the mean (s.e.m.).
# [2] = test system: leukocytes recruited in the peritoneal cavity; assay: In vivo model of peritoneal cell recruitment; design: species or system mouse; conditions: 4 μg i.p. in Balb/C mice, 4 hours post injection
# Method: 8-12 week old, female Balb/C mice (Janvier, France) were injected intra peritoneally (i.p.) with 200 μl NaCl (0.9%, LPS free) or chemokine 4 μg (WT SDF-1α or SDF-1α variant according to SEQ ID NO:4 diluted in 200 μl NaCl (0.9%, LPS free). […] of WT or mutant SDF-1α, mice were sacrificed by CO2 asphyxiation, the peritoneal cavity was washed with 3×5 ml ice cold PBS and the total lavage was pooled for individual mice. Total cells collected were counted by haemocytometer (Neubauer, Germany).
# [3] = pre-incubation 3 h (SDF proteins 0.001, 0.1, 10 ng/ml; IL-10 10 ng/ml; dexamethasone 25 pM), then LPS 5 ng/ml 48 h, ELISA, compared to untreated cells
substance,measurement,setting,value
IL-6: reference (positive) control compound in nerve crush and STZ models [reference compound],threshold latency in the hot plate test,STZ-rats,significantly lowered
"SDF-1α: Human recombinant chemokine SDF-1α (SEQ ID NO: 1), produced in house, expressed in E. Coli cells",levels of IL-6 secretion,[1]; [3],significantly decreased
same,levels of TNF-α secretion,[1]; [3],significantly decreased
same,best concentration for decrease of TNF-α and IL-6 secretion,"[1]; tested 0.001, 0.1 and 10 ng/ml, LPS 5 ng/ml 48 h",10 ng/mL
same,leukocyte recruitment in the peritoneal cavity,[2],recruits leukocytes
same,threshold latency in the hot plate test,STZ-rats,significantly lowered
